Data set [1] deals with K562 CRISPRi cells. In words: Perturb-seq pooled growth measurement (sgRNA counts, growth phenotype γ, relative activity). It counts as cell-based, human. To be noted: γ relative to perfectly matched sgRNA (_00) of the same gene, day 10.
Data set [2] deals with K562 CRISPRi cells. Described as above. It counts as cell-based, human. The settings on record: for gamma_day5 / gamma_day10: pooled growth phenotype γ of the Perturb-seq sgRNA; for gamma_day5: day 5, K562 CRISPRi cells; for gamma_day10: day 10, K562 CRISPRi cells; for relative_activity_day5: γ relative to perfectly matched sgRNA (_00) of the same gene, day 5. In outline: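 sgRNA abundance was sequenced from genomic DNA of the same transduced population sampled on days two, seven and twelve. Phenotype γ compares normalized day seven and twelve counts with day two. Day-seven values (five days of growth) define relative sgRNA activity.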

The source of these data is patent publication US20220259593A1, “CONTROL OF MAMMALIAN GENE DOSAGE USING CRISPR” (The Regents of the University of California, priority 2019, published 2022).

Substance “HSPA9_ −_137911079.23-P1P2_02 (guide GGAGTTGCGCGATGCGGTGG; listed as DNA, chemistry not fully specified)” returned a relative_activity_day10 in the data set with K562 CRISPRi cells [1] of 0.6835. In addition, in the data set with K562 CRISPRi cells [2], the gamma_day5 is −0.6504, the gamma_day10 is recorded as −0.4027 and the relative_activity_day5 came to 0.6846.
“HSPA9_ −_137911079.23-P1P2_04 (guide GGAGCTGCGCAATGCGGTGG; listed as DNA, chemistry not fully specified)” showed a relative_activity_day10 with K562 CRISPRi cells [1] of 0.2813. In the data set with K562 CRISPRi cells [2], this substance came in with a gamma_day5 of −0.2005, a gamma_day10 of −0.1657 and a relative_activity_day5 of 0.211.
On to “HSPA9_ −_137911079.23-P1P2_07 (guide GGAGCTGCGGGATGCGGTGG; listed as DNA, chemistry not fully specified)”, for which the relative_activity_day10 in the data set with K562 CRISPRi cells [1] is 0.8547. Moreover, in the data set on K562 CRISPRi cells [2], the gamma_day5 is −0.8109, the gamma_day10 was −0.5036 and the relative_activity_day5 is on record as 0.8537.
“HSPA9_ −_137911079.23-P1P2_08 (guide GGAGCTGCTCGATGCGGTGG; listed as DNA, chemistry not fully specified)” registered a relative_activity_day10 in the data set with K562 CRISPRi cells [1] of 0.4688. In the data set on K562 CRISPRi cells [2], this substance showed a gamma_day5 of −0.3582, a gamma_day10 of −0.2762 and a relative_activity_day5 of 0.3771.
With “HSPE1_ + _198365089.23-P1P2_00 (guide GGAGACTCGCAGTCCGGCCC; listed as DNA, chemistry not fully specified)”, the relative_activity_day10 in the data set on K562 CRISPRi cells [1] was 1. Besides, in the data set on K562 CRISPRi cells [2], the gamma_day5 is recorded as −0.7018, the gamma_day10 is −0.5672 and the relative_activity_day5 was determined as 1.
“HSPE1_ + _198365089.23-P1P2_01 (guide GGAGACACGCAGTCCGGCCC; listed as DNA, chemistry not fully specified)”: the relative_activity_day10 in the data set on K562 CRISPRi cells [1] worked out at 0.8523. In the data set on K562 CRISPRi cells [2], this substance showed a gamma_day5 of −0.616, a gamma_day10 of −0.4834 and a relative_activity_day5 of 0.8777.
As for “HSPE1_ + _198365089.23-P1P2_02 (guide GGAGACTGGCAGTCCGGCCC; listed as DNA, chemistry not fully specified)”, the relative_activity_day10 in the data set with K562 CRISPRi cells [1] amounted to 0.6285. Also, in the data set on K562 CRISPRi cells [2], the gamma_day5 is reported as −0.4365, the gamma_day10 is −0.3565 and the relative_activity_day5 is reported as 0.622.
On the same counts, the results for “HSPE1_ + _198365089.23-P1P2_03 (guide GGTGACTCGCAGTCCGGCCC; listed as DNA, chemistry not fully specified)” are 0.8198, −0.6427, −0.465 and 0.9158.
The substance “HSPE1_ + _198365089.23-P1P2_14 (guide GGAGACTCGCAGTCCTGCCC; listed as DNA, chemistry not fully specified)” came in with a relative_activity_day10 with K562 CRISPRi cells [1] of 0.3465. Besides, in the data set on K562 CRISPRi cells [2], the gamma_day5 is reported as −0.2088, the gamma_day10 is reported as −0.1965 and the relative_activity_day5 came to 0.2975.
For the substance “MTOR_ + _11322547.23-P1P2_00 (guide GGGCAGGGGGCCTGAAGCGG; listed as DNA, chemistry not fully specified)”, the relative_activity_day10 with K562 CRISPRi cells [1] is recorded as 1. In the data set with K562 CRISPRi cells [2], the gamma_day5 is given as −0.6872, the gamma_day10 is listed as −0.5618 and the relative_activity_day5 was found to be 1.
In the data set with K562 CRISPRi cells [1], “MTOR_ + _11322547.23-P1P2_05 (guide GGGCAGGGGGCTTGAAGCGG; listed as DNA, chemistry not fully specified)” registered a relative_activity_day10 of 0.6137. In the data set with K562 CRISPRi cells [2], this substance came in with a gamma_day5 of −0.4313, a gamma_day10 of −0.3448 and a relative_activity_day5 of 0.6275.
In turn, “MTOR_ + _11322547.23-P1P2_06 (guide GGGCAGGGGGGCTGAAGCGG; listed as DNA, chemistry not fully specified)” had a relative_activity_day10 in the data set on K562 CRISPRi cells [1] of 0.532. Besides, in the data set on K562 CRISPRi cells [2], the gamma_day5 is listed as −0.3933, the gamma_day10 was −0.2989 and the relative_activity_day5 is 0.5723.
With “MTOR_ + _11322547.23-P1P2_07 (guide GGGCAGGGGGTCTGAAGCGG; listed as DNA, chemistry not fully specified)”, the relative_activity_day10 with K562 CRISPRi cells [1] came out at 0.8541. In the data set on K562 CRISPRi cells [2], this substance showed a gamma_day5 of −0.5893, a gamma_day10 of −0.4799 and a relative_activity_day5 of 0.8576.
In the data set on K562 CRISPRi cells [1], “MTOR_ + _11322547.23-P1P2_10 (guide GGGCAGGGGGCCTGAAGCAG; listed as DNA, chemistry not fully specified)” returned a relative_activity_day10 of 0.4141. Further, in the data set on K562 CRISPRi cells [2], the gamma_day5 is −0.3048, the gamma_day10 is on record as −0.2327 and the relative_activity_day5 came to 0.4435.
As for “POLR1D_ + _28196016.23-P1_00 (guide GGGAAGCAAGGACCGACCGA; listed as DNA, chemistry not fully specified)”, the relative_activity_day10 with K562 CRISPRi cells [1] turned out to be 1. In the data set with K562 CRISPRi cells [2], the gamma_day5 was −0.7594, the gamma_day10 is recorded as −0.6213 and the relative_activity_day5 is 1.
In turn, “POLR1D_ + _28196016.23-P1_01 (guide GGGAAGCCAGGACCGACCGA; listed as DNA, chemistry not fully specified)” displayed a relative_activity_day10 in the data set on K562 CRISPRi cells [1] of 0.8718. Besides, in the data set with K562 CRISPRi cells [2], the gamma_day5 was −0.6945, the gamma_day10 is −0.5416 and the relative_activity_day5 came to 0.9145.
Regarding “POLR1D_ + _28196016.23-P1_03 (guide GGTAAGCAAGGACCGACCGA; listed as DNA, chemistry not fully specified)”, the relative_activity_day10 in the data set on K562 CRISPRi cells [1] was found to be 1.1. In the data set on K562 CRISPRi cells [2], the gamma_day5 is −0.8471, the gamma_day10 is −0.6833 and the relative_activity_day5 was 1.116.
“POLR1D_ + _28196016.23-P1_07 (guide GGGAAGCAAGGAGCGACCGA; listed as DNA, chemistry not fully specified)” came in with a relative_activity_day10 in the data set on K562 CRISPRi cells [1] of 0.3911. Moreover, in the data set with K562 CRISPRi cells [2], the gamma_day5 is −0.3019, the gamma_day10 is on record as −0.243 and the relative_activity_day5 came to 0.3976.
On the same counts, the results for “POLR1D_ + _28196016.23-P1_08 (guide GGGAAGCAGGGACCGACCGA; listed as DNA, chemistry not fully specified)” are 1.017, −0.8088, −0.6317 and 1.065.
Substance “POLR2H_ + _184081251.23-P1P2_00 (guide GGGGCCACGAGAGCAGCAGA; listed as DNA, chemistry not fully specified)” displayed a relative_activity_day10 with K562 CRISPRi cells [1] of 1. In the data set on K562 CRISPRi cells [2], this substance yielded a gamma_day5 of −1.149, a gamma_day10 of −0.6391 and a relative_activity_day5 of 1.
The substance “POLR2H_ + _184081251.23-P1P2_07 (guide GGGGCCACGAGTGCAGCAGA; listed as DNA, chemistry not fully specified)” gave a relative_activity_day10 with K562 CRISPRi cells [1] of 0.223. Moreover, in the data set on K562 CRISPRi cells [2], the gamma_day5 was −0.1894, the gamma_day10 was −0.1426 and the relative_activity_day5 amounted to 0.1648.
On the same counts, the results for “POLR2H_ + _184081251.23-P1P2_08 (guide GGGGCCACGCGAGCAGCAGA; listed as DNA, chemistry not fully specified)” are 0.5225, −0.5208, −0.334 and 0.4532.
Taken in the same sequence, the figures for “POLR2H_ + _184081251.23-P1P2_11 (guide GGGGCCACGAGAGCAGCGGA; listed as DNA, chemistry not fully specified)” were 0.8554, −0.9966, −0.5467 and 0.8672.
“POLR2H_ + _184081251.23-P1P2_12 (guide GGGGCCACGAGAGCAGGAGA; listed as DNA, chemistry not fully specified)” had a relative_activity_day10 in the data set on K562 CRISPRi cells [1] of 0.3595. For the same substance, in the data set on K562 CRISPRi cells [2], the gamma_day5 is listed as −0.3516, the gamma_day10 is −0.2298 and the relative_activity_day5 came to 0.306.
Taken in the same sequence, the figures for “RAN_ + _131356438.23-P1P2_00 (guide GGCGGTCGCTGCGCTTAGGG; listed as DNA, chemistry not fully specified)” were 1, −0.1974, −0.1615 and 1.
Turning to “RAN_ + _131356438.23-P1P2_02 (guide GGCGGCCGCTGCGCTTAGGG; listed as DNA, chemistry not fully specified)”, in the data set with K562 CRISPRi cells [1], the relative_activity_day10 was 1.264. Moreover, in the data set on K562 CRISPRi cells [2], the gamma_day5 is −0.2316, the gamma_day10 was −0.2041 and the relative_activity_day5 was determined as 1.173.
“RAN_ + _131356438.23-P1P2_03 (guide GGGGGTCGCTGCGCTTAGGG; listed as DNA, chemistry not fully specified)”: in the data set on K562 CRISPRi cells [1], the relative_activity_day10 was 1.22. Moreover, in the data set on K562 CRISPRi cells [2], the gamma_day5 was −0.2162, the gamma_day10 is recorded as −0.197 and the relative_activity_day5 amounted to 1.095.
Turning to “RAN_ + _131356438.23-P1P2_04 (guide GGCGGTCGCGGCGCTTAGGG; listed as DNA, chemistry not fully specified)”, the relative_activity_day10 with K562 CRISPRi cells [1] is recorded as 0.5401. In the data set on K562 CRISPRi cells [2], this substance showed a gamma_day5 of −0.0859, a gamma_day10 of −0.08721 and a relative_activity_day5 of 0.4352.
